Measured values as given in patent EP0252983B1, “SALTS OF N-(VINYLOXIETHYL)DITHIOCARBAMIC ACID, METHOD OF OBTAINING THEREOF AND […] ON THEM” (priority 1985, dated 1987).

Legend:
[1] = test system: Cladosporium cladosporioides; experiment: Mycelial growth inhibition on agar (contact activity); format: cell-based; details: Tabelle 11
[2] = test system: Acremonium cowum; experiment: as above; format: cell-based; details: Tabelle 11
[3] = test system: Walrotiela subiculesa; experiment: as above; format: cell-based; details: Tabelle 11
Procedure: (§1) Die Prüfungen werden nach dem Verfahren zur Ermittlung der Kontaktaktivität durchgeführt. Man verwendet das in Wasser gelöste Kalium-N-(vinyloxyäthyl)dithiocarbamat, führt es in ein Nährmedium ein und vergießt auf Petri-Schalen. Nach 24 Stunden wird mit Pilzmyzelium nach einem Stichverfahren geimpft. Dann temperiert man die Schalen innerhalb von 5 Tagen bei einer zwischen 24 und 26 °C liegenden Temperatur und mißt den Durchmesser von Pilzkolonien, ermittelt den Prozentsatz der Hemmung des Myzelwachstums (S) ausgehend von Angaben am 5. Tag nach der Abbott-Formel [drawing 13] worin dc für den Durchmesser der Pilzkolonien, de für den Durchmesser von Pilzkolonien in der Schale stehen, wo ein die zu prüfenden Stoffe enthaltendes Medium vorhanden ist. Dieses Verfahren zur Ermittlung der mikrobiologischen Aktivität ist in anderen Beispielen verwendet.
(§2) Die Pilzkulturen werden auf Würzeagar gezüchtet. Ergebnisse, erhalten bei der Prüfung der fungiziden Aktivität gegen reine Kulturen von Mikroorganismen, welche Bioschädigungen hervorrufen, sind in der Tabelle 1 dargestellt.

[4] = test system: Penicillium charlesii; experiment: as above; format: cell-based; details: Tabelle 11
Procedure: as §1, §2

[5] = test system: Penicillium chrysogenum; experiment: as above; format: cell-based; details: Tabelle 11
Procedure: as §1, §2

[6] = test system: Geotrichum candidum Link; experiment: as above; format: cell-based; details: Tabelle 11
Procedure: as §1, §2

[7] = test system: Cladosporium resinae; experiment: as above; format: cell-based; details: Tabelle 11
[8] = Storage stability (descriptive); format: physicochemical
[9] = Solubility in water (descriptive); format: physicochemical
[10] = test system: Acremonium charticola; experiment: Mycelial growth inhibition on agar (contact activity); format: cell-based; details: Tabelle 11
[11] = test system: Escherichia; experiment: Bactericidal activity on agar (concentration of complete growth inhibition); format: cell-based; details: % bezogen auf den Wirkstoff; am 5. Tag
Procedure: (§3) Geprüft wird die bakterizide Aktivität von Kalium-, Natrium-, Zink- und Kupfersalzen der N-(Vinyloxyäthyl)dithiocarbamidsäure gegen Bakterien der Gattungen Bacillus, Micrococcus, Pseudomonas, Escherichia und Xantomonas.
(§4) Man stellt wäßrige Stofflösungen verschiedener Konzentration her, die so berechnet werden, daß die Stoffkonzentration in der Petri-Schale bei der Gabe von 1 ml Lösung in das geschmolzene Nährmedium (45 bis 50 °C) zwischen 0,003 und 25 % (bezogen auf den Wirkstoff) schwankt. Nach 18 bis 24 Stunden bringt man auf die Oberfläche des Nährmediums 0,1 ml wäßrige Suspension eintägiger reiner Kulturen von Bakterien auf und verteilt sie gleichmäßig. In Kontrollschalen verteilt sich 0,1 ml Wasser über die Oberfläche des Nährmediums. Die Inkubation erfolgt bei 37 °C innerhalb von 5 Tagen. Die Wirksamkeit der Stoffe wird nach dem Auftreten des Bakterienwachstums auf der Oberfläche des Nährmediums eingeschätzt. Die Prüfergebnisse sind in der Tabelle 13 dargestellt.

[12] = test system: Xantomonas; experiment: as above; format: cell-based; details: % bezogen auf den Wirkstoff; am 5. Tag
Procedure: as §3, §4

[13] = test system: Pseudomonas; experiment: as above; format: cell-based; details: % bezogen auf den Wirkstoff; am 5. Tag
Procedure: as §3, §4

[14] = test system: Bacillus; experiment: as above; format: cell-based; details: % bezogen auf den Wirkstoff; am 5. Tag
Procedure: as §3, §4

[15] = test system: Micrococcus; experiment: as above; format: cell-based; details: % bezogen auf den Wirkstoff; am 5. Tag
Procedure: as §3, §4

[16] = Konzentration des Präparats 0,01 %
[17] = Konzentration des Präparats 0,02 %
[18] = Konzentration des Präparats 0,05 %
[19] = Konzentration des Präparats 0,10 %
[20] = Konzentration des Präparats 0,005 %

In the case of “Kupfer-bis-(N-vinyloxyäthyldithiocarbamat)”, the Myzelhemmung in % [1, 16] is reported as 36%, the Myzelhemmung in % [1, 17] is reported as 65% and the Myzelhemmung in % [1, 18] is reported as 80%. It also gave a Myzelhemmung in % [1, 19] of 100%, a Myzelhemmung in % [1, 20] of 15% and a Myzelhemmung in % [2, 16] of 100%. For the same substance, the Myzelhemmung in % [2, 17] was 100%, the Myzelhemmung in % [2, 18] was 100% and the Myzelhemmung in % [2, 19] was 100%. The Myzelhemmung in % [2, 20] was 100%, the Myzelhemmung in % [3, 16] was 0% and the Myzelhemmung in % [3, 17] was 10%. The Myzelhemmung in % [3, 18] was 37%, the Myzelhemmung in % [3, 19] was 100% and the Myzelhemmung in % [3, 20] was 0%. It also gave a Myzelhemmung in % [4, 16] of 30%, a Myzelhemmung in % [4, 17] of 80% and a Myzelhemmung in % [4, 18] of 100%. The Myzelhemmung in % [4, 19] was 100%, the Myzelhemmung in % [4, 20] was 15% and the Myzelhemmung in % [5, 16] was 25%. For the same substance, the Myzelhemmung in % [5, 17] was 36%, the Myzelhemmung in % [5, 18] was 70% and the Myzelhemmung in % [5, 19] was 100%. It also gave a Myzelhemmung in % [5, 20] of 10%, a Myzelhemmung in % [6, 16] of 100% and a Myzelhemmung in % [6, 17] of 100%. The Myzelhemmung in % [6, 18] was 100%, the Myzelhemmung in % [6, 19] was 100% and the Myzelhemmung in % [6, 20] was 100%. For the same substance, the Myzelhemmung in % [7, 16] was 50%, the Myzelhemmung in % [7, 17] was 80% and the Myzelhemmung in % [7, 18] was 90%. For the same substance, the Myzelhemmung in % [7, 19] was 100%, the Myzelhemmung in % [7, 20] was 34% and the Lagerbeständigkeit [8] was “lagerbeständig”. For the same substance, the “Löslichkeit in Wasser” value [9] was “unlöslich”, the Myzelhemmung in % [10, 16] was 96% and the Myzelhemmung in % [10, 17] was 100%. It also gave a Myzelhemmung in % [10, 18] of 100%, a Myzelhemmung in % [10, 19] of 100% and a Myzelhemmung in % [10, 20] of 70%. For the same substance, the “Konzentrationen, welche das Bakterienwachstum völlig (100 %) hemmen” value (“Konzentrationen … (100 %) hemmen” for short) [11] was 0,15%, the “Konzentrationen … (100 %) hemmen” value [12] was 0,15% and the “Konzentrationen … (100 %) hemmen” value [13] was 0,15%. The “Konzentrationen … (100 %) hemmen” value [14] was 0,15% and the “Konzentrationen … (100 %) hemmen” value [15] was 0,15%.
